Laboratory results as given in PMC8213057, “Targeting ALK2: An Open Science Approach to Developing Therapeutics for the Treatment of Diffuse Intrinsic Pontine Glioma” (Journal of Medicinal Chemistry, 2020).

Tests used:
Assay in all cases: biochemical
Settings in all cases: read-out: % enzyme activity, 1 μM; Run 1, Run 2
[1] = biological target: T1, Aurora A (Homo sapiens, UniProt O14965)
T1 sequence (O14965 1-403): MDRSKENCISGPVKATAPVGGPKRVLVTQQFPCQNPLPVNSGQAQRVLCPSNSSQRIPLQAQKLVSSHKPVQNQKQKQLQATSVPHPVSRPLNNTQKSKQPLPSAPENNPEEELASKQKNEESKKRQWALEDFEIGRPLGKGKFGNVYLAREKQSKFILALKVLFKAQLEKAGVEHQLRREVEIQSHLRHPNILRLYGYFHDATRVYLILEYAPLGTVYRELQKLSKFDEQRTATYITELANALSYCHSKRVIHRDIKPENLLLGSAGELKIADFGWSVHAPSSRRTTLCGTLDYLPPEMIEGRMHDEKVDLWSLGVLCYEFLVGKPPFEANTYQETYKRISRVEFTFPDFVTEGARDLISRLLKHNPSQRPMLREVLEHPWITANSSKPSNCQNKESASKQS

[2] = biological target: p70S6K/RPS6KB1 (Homo sapiens, UniProt P23443)
Sequence of p70S6K/RPS6KB1 (P23443 whole entry): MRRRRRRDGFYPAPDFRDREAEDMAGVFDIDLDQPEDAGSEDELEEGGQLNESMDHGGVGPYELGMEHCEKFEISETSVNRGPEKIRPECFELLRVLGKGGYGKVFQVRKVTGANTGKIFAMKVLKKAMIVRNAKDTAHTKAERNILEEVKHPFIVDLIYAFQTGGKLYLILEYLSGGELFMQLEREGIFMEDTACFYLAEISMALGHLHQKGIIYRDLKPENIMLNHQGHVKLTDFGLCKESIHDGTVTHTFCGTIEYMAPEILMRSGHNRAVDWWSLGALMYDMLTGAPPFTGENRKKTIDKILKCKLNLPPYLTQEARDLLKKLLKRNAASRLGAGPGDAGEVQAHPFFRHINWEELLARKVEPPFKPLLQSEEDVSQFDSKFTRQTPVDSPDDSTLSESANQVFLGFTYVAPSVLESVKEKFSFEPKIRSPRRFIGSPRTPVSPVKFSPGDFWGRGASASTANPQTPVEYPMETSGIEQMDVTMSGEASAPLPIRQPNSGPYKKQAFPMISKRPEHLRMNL

[3] = biological target: T2, RIPK5 (Homo sapiens, UniProt Q6XUX3)
T2 sequence (Q6XUX3 1-929): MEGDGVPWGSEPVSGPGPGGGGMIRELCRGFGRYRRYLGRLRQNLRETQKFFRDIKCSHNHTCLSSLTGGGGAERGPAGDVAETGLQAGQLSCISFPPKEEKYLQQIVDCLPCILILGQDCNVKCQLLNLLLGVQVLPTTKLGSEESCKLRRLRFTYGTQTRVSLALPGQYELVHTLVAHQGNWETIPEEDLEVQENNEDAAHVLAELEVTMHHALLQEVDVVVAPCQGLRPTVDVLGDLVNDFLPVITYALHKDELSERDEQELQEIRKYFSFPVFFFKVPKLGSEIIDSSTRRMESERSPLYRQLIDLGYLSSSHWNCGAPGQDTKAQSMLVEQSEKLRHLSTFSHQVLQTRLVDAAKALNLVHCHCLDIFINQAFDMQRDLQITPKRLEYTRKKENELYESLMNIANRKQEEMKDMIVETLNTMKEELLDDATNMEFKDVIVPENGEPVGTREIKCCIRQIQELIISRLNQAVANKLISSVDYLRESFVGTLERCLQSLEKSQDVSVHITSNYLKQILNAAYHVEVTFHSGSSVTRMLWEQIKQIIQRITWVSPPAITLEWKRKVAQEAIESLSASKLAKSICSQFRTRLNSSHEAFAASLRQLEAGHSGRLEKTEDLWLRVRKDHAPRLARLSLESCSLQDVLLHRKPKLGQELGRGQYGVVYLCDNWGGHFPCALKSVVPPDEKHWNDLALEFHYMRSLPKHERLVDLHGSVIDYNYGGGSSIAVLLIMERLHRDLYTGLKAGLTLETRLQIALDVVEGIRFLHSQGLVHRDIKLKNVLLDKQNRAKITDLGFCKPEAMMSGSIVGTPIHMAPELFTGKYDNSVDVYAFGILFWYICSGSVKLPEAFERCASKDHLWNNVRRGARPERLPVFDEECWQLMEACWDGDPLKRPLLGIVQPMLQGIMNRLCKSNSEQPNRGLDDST

[4] = biological target: PAK4 (Homo sapiens, UniProt O96013)
Sequence of PAK4 (O96013 whole entry): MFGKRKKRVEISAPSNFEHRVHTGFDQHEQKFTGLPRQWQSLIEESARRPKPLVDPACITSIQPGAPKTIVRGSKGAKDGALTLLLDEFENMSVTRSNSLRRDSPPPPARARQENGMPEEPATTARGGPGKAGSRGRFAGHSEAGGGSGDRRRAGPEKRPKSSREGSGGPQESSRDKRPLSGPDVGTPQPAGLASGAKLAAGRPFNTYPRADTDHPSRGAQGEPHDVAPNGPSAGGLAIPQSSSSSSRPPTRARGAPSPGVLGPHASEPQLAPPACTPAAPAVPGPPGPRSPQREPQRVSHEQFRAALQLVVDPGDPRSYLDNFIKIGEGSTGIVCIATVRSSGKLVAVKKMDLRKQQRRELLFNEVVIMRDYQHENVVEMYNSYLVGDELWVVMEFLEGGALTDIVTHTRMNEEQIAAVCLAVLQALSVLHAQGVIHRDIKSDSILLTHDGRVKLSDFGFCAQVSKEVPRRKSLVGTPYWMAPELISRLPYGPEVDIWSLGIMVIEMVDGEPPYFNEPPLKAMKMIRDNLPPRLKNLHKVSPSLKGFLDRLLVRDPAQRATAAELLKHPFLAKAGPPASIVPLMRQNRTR

[5] = biological target: T3, LKB1 (Homo sapiens, UniProt Q15831)
T3 sequence (Q15831 1-433): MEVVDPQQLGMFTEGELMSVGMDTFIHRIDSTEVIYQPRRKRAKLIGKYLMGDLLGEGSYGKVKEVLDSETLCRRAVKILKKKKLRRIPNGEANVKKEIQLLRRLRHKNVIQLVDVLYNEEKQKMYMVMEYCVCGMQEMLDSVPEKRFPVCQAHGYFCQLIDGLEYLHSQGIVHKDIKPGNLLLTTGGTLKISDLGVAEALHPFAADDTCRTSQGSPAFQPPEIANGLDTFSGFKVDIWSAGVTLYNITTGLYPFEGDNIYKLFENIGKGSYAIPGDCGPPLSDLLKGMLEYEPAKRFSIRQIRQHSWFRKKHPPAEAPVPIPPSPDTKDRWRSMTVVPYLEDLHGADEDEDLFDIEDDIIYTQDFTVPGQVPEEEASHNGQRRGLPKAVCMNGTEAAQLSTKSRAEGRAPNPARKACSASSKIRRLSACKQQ
T3 sequence (Q7RTN6 1-431 partner): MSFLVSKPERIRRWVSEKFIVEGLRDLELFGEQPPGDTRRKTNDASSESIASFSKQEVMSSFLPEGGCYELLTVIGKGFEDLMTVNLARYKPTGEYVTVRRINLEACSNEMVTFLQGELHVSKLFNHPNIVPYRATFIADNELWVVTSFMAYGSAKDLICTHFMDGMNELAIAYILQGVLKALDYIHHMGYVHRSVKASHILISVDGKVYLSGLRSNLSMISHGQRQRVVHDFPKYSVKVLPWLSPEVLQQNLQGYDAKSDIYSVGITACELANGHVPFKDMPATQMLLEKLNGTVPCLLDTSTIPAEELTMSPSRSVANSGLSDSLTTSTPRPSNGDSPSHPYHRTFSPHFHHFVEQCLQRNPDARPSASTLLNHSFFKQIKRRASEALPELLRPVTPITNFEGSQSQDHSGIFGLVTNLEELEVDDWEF
T3 sequence (Q9Y376 1-341 partner): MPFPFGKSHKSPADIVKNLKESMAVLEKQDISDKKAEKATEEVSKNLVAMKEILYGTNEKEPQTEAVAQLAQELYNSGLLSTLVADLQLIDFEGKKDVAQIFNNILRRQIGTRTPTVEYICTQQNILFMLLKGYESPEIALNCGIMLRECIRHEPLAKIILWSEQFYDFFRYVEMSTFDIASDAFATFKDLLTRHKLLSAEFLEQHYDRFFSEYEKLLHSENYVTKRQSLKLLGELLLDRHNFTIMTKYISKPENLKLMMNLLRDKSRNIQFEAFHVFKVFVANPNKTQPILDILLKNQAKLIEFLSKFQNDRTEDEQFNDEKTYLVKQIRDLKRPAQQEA

[6] = biological target: FER (Homo sapiens, UniProt P16591)
Sequence of FER (P16591 whole entry): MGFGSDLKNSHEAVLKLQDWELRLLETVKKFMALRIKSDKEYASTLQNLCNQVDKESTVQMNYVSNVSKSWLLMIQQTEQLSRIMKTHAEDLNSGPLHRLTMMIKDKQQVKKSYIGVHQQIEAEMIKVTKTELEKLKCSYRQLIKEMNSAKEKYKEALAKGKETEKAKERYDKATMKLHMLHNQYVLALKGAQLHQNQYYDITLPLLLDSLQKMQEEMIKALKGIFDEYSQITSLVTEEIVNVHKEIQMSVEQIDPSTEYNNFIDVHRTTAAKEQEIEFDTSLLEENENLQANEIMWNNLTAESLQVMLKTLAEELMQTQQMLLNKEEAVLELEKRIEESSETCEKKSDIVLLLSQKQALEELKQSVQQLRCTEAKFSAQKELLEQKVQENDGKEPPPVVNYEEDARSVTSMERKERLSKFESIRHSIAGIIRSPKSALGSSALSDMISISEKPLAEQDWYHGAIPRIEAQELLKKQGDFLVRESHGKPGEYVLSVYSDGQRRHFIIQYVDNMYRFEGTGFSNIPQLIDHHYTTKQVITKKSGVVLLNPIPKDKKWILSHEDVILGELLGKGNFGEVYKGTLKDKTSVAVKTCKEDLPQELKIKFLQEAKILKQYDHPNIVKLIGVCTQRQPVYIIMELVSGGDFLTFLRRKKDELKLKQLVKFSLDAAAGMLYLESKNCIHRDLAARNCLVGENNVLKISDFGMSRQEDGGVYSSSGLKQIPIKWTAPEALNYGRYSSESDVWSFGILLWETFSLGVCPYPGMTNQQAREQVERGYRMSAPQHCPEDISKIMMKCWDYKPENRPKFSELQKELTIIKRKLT

**Q.** How did the remaining activity at 1 µM [1] turn out when `COc1cc(-c2cncc(-c3ccc(N4CCN(C)CC4)cc3)c2C)cc(F)c1C(N)=O` [Compound 26a, 2-Fluoro-6-methoxy-4-(4-methyl-5-(4-(4-methylpiperazin-1-yl)phenyl)pyridin-3-yl)benzamide] was run?
**A.** 101%

**Q.** And the remaining activity at 1 µM [2]?
**A.** 97.8%

**Q.** What about the remaining activity at 1 µM [3] of the same compound?
**A.** 83.1%

**Q.** And the remaining activity at 1 µM [4]?
**A.** 98.5%

**Q.** And the remaining activity at 1 µM [5]?
**A.** 80.7%

**Q.** What about the remaining activity at 1 µM [6] of the same compound?
**A.** 89.2%

**Q.** For `COc1cc(-c2cncc(-c3ccc(N4C[C@@H](C)N(C)[C@@H](C)C4)cc3)c2C)cc(F)c1C(N)=O` [Compound 26c, 2-Fluoro-6-methoxy-4-(4-methyl-5-(4-((3R,5S)-3,4,5-trimethylpiperazin-1-yl)phenyl)pyridin-3-yl)benzamide], which remaining activity at 1 µM [1] is on record?
**A.** 102%

**Q.** What about the remaining activity at 1 µM [2] of the same compound?
**A.** 100%

**Q.** And the remaining activity at 1 µM [3]?
**A.** 86.8%

**Q.** And the remaining activity at 1 µM [4]?
**A.** 99.9%

**Q.** What about the remaining activity at 1 µM [5] of the same compound?
**A.** 96.1%

**Q.** And the remaining activity at 1 µM [6]?
**A.** 86%
